Data reported in PubChem BioAssay (NCI).
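Exposure lasted 48 hours, with cells grown in 96-well plates and compounds tested at five concentrations. TGI: concentration producing complete growth inhibition.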

Assays:
Experiment in all cases: DTP human tumour cell line panel, 48 h
[1] = tested on: LOX IMVI melanoma
[2] = tested on: RXF 393 renal
[3] = tested on: SF-268 CNS
[4] = tested on: DU-145 prostate
[5] = tested on: HCC-2998 colon
[6] = tested on: SW-620 colon
[7] = tested on: SK-MEL-2 melanoma
[8] = tested on: T-47D breast
[9] = tested on: SF-539 CNS
[10] = tested on: MDA-N
[11] = tested on: NCI-H23 lung
[12] = tested on: SNB-19 CNS
[13] = tested on: SF-295 CNS
[14] = tested on: SN12C renal
[15] = tested on: SK-OV-3 ovarian
[16] = tested on: COLO 205 colon
[17] = tested on: OVCAR-5 ovarian
[18] = tested on: HOP-62 NSCLC
[19] = tested on: ACHN renal
[20] = tested on: PC-3 prostate
[21] = tested on: UACC-257 melanoma
[22] = tested on: HT29 colon
[23] = tested on: A549 NSCLC
[24] = tested on: M14 melanoma
[25] = tested on: UO-31 renal
[26] = tested on: UACC-62 melanoma
[27] = tested on: BT-549 breast
[28] = tested on: A498 renal
[29] = tested on: CAKI-1 renal
[30] = tested on: U251 CNS
[31] = tested on: MDA-MB-231 breast
[32] = tested on: KM12 colon
[33] = tested on: CCRF-CEM leukemia
[34] = tested on: HL-60(TB) leukemia
[35] = tested on: SK-MEL-28 melanoma
[36] = tested on: SK-MEL-5 melanoma
[37] = tested on: IGROV1 ovarian
[38] = tested on: HCT-15 colon
[39] = tested on: HS 578T breast
[40] = tested on: 786-0 renal
[41] = tested on: MALME-3M melanoma
[42] = tested on: MOLT-4 leukemia
[43] = tested on: OVCAR-3 ovarian
[44] = tested on: OVCAR-8 ovarian
[45] = tested on: NCI-H522 lung
[46] = tested on: SNB-75 CNS
[47] = tested on: TK-10 renal
[48] = tested on: OVCAR-4 ovarian
[49] = tested on: NCI-H460 lung
[50] = tested on: EKVX NSCLC
[51] = tested on: SR leukemia
[52] = tested on: HCT-116 colon
[53] = tested on: RPMI-8226 leukemia
[54] = tested on: NCI-H226 lung
[55] = tested on: NCI/ADR-RES ovarian
[56] = tested on: MCF7 breast
[57] = tested on: K-562 leukemia
[58] = tested on: MDA-MB-435
[59] = tested on: HOP-92 NSCLC

With CCN1CCC(O)(c2ccc([N+](=O)[O-])cc2)C(C(=O)c2ccc([N+](=O)[O-])cc2)C1 (stereo unspecified) the TGI [1] was 38.6 µM, the TGI [2] was 30 µM and the TGI [3] was 46 µM. It also gave a TGI [4] of 32.3 µM, a TGI [5] of 32.8 µM and a TGI [6] greater than 100 µM. For the same compound, the TGI [7] was greater than 100 µM, the TGI [8] was 46.4 µM and the TGI [9] was 30.7 µM. For the same compound, the TGI [10] was 39.1 µM, the TGI [11] was 36.4 µM and the TGI [12] was greater than 100 µM. For the same compound, the TGI [13] was greater than 100 µM, the TGI [14] was 38.8 µM and the TGI [15] was greater than 100 µM. The TGI [16] was 28.1 µM, the TGI [17] was greater than 100 µM and the TGI [18] was greater than 100 µM. It also gave a TGI [19] of 32 µM, a TGI [20] greater than 100 µM and a TGI [21] of 33.7 µM. It also gave a TGI [22] greater than 100 µM, a TGI [23] greater than 100 µM and a TGI [24] of 42.1 µM. For the same compound, the TGI [25] was 36.8 µM, the TGI [26] was 33 µM and the TGI [27] was 30.8 µM. For the same compound, the TGI [28] was 46.2 µM, the TGI [29] was 41.2 µM and the TGI [30] was greater than 100 µM. The TGI [31] was 41.9 µM, the TGI [32] was 32.1 µM and the TGI [33] was greater than 100 µM. The TGI [34] was greater than 100 µM, the TGI [35] was 33.5 µM and the TGI [36] was 35.7 µM. It also gave a TGI [37] of 35.5 µM, a TGI [38] of 52.9 µM and a TGI [39] of 61.7 µM. It also gave a TGI [40] of 29.9 µM, a TGI [41] of 48.6 µM and a TGI [42] of 58 µM. It also gave a TGI [43] of 31.5 µM, a TGI [44] of 81.9 µM and a TGI [45] of 15.1 µM. For the same compound, the TGI [46] was greater than 100 µM, the TGI [47] was 32.4 µM and the TGI [48] was 83.9 µM. The TGI [49] was 48.7 µM, the TGI [50] was 37.6 µM and the TGI [51] was greater than 100 µM. The TGI [52] was 32.6 µM, the TGI [53] was 17.8 µM and the TGI [54] was 61.3 µM. It also gave a TGI [55] greater than 100 µM, a TGI [56] of 31.4 µM and a TGI [57] greater than 100 µM. For the same compound, the TGI [58] was 43.5 µM.
For NCCOc1cccc(C2(N3CCCCC3)CCCCC2)c1, the TGI [1] was 28.9 µM, the TGI [2] was greater than 100 µM and the TGI [3] was 86.7 µM. The TGI [4] was greater than 100 µM, the TGI [5] was 37.5 µM and the TGI [6] was greater than 100 µM. The TGI [7] was 52.2 µM, the TGI [8] was greater than 100 µM and the TGI [9] was 32.3 µM. For the same compound, the TGI [10] was 33.3 µM, the TGI [11] was greater than 100 µM and the TGI [12] was greater than 100 µM. It also gave a TGI [13] of 77.1 µM, a TGI [14] greater than 100 µM and a TGI [15] greater than 100 µM. It also gave a TGI [16] of 26 µM, a TGI [17] greater than 100 µM and a TGI [18] greater than 100 µM. It also gave a TGI [19] greater than 100 µM, a TGI [20] greater than 100 µM and a TGI [21] of 34 µM. For the same compound, the TGI [22] was 41.2 µM, the TGI [23] was greater than 100 µM and the TGI [24] was 30.2 µM. For the same compound, the TGI [25] was 28.2 µM, the TGI [26] was 44.2 µM and the TGI [27] was 40 µM. The TGI [28] was 98.6 µM, the TGI [29] was greater than 100 µM and the TGI [30] was 35.1 µM. It also gave a TGI [31] of 46.3 µM, a TGI [32] greater than 100 µM and a TGI [33] of 35.8 µM. For the same compound, the TGI [34] was 89.2 µM, the TGI [35] was 35.5 µM and the TGI [36] was 30.1 µM. For the same compound, the TGI [38] was greater than 100 µM, the TGI [39] was 38.5 µM and the TGI [40] was 26.1 µM. It also gave a TGI [41] of 35.1 µM, a TGI [42] of 48.7 µM and a TGI [43] greater than 100 µM. For the same compound, the TGI [44] was greater than 100 µM, the TGI [45] was 36.1 µM and the TGI [46] was greater than 100 µM. For the same compound, the TGI [59] was 95.2 µM, the TGI [47] was greater than 100 µM and the TGI [48] was greater than 100 µM. It also gave a TGI [49] greater than 100 µM, a TGI [50] of 62.6 µM and a TGI [51] of 34.8 µM. It also gave a TGI [52] of 34.4 µM, a TGI [53] of 48.4 µM and a TGI [54] greater than 100 µM. For the same compound, the TGI [55] was greater than 100 µM, the TGI [56] was greater than 100 µM and the TGI [57] was 35.1 µM. It also gave a TGI [58] of 33.6 µM.
